{"source": "paper PMC4767605", "about": "(Cancer chemotherapy and pharmacology, 2016)", "experiment": "Phase I study: plasma pharmacokinetics of ASP9853 and docetaxel", "type": "in vivo, human", "settings": "for Median ASP9853 Cmax / Median AUC24 for ASP9853: Cycle 1/Day 1", "key": {"[1]": {"settings": "Cohort 1: ASP9853 25 mg + docetaxel 60 mg/m^2"}, "[2]": {"settings": "Cohort 2: ASP9853 25 mg + docetaxel 75 mg/m^2"}, "[3]": {"settings": "Cohort 3: ASP9853 37.5 mg + docetaxel 60 mg/m^2"}, "[4]": {"settings": "Cohort 4: ASP9853 50 mg + docetaxel 60 mg/m^2"}}}
{"compound": "O.O.O=C(/C=C/c1ccc(Cl)cc1)N[C@@H](Cc1ccccn1)C(=O)NCC(=O)N1CCC(Oc2cc(C(F)(F)F)ncn2)CC1", "note": "[ASP9853, (2E)-3-(4-chlorophenyl)-N-[(1S)-2-oxo-2-{[2-oxo-2-(4-{[6-(trifluoromethyl)-4-pyrimidinyl]oxy}-1-piperidinyl)ethyl]amino}-1-(2-pyridinylmethyl)ethyl]acrylamide dehydrate]", "values": [{"measurement": "ASP9853 PK profiles in patients with versus without neutropenic DLTs", "setting": "Cycle 1, Day 1, high interpatient variability", "result": "no clear difference"}, {"measurement": "Median ASP9853 Cmax", "setting": "[1]", "result": 747, "unit": "ng/mL"}, {"measurement": "Median AUC24 for ASP9853", "setting": "[1]", "result": 3769, "unit": "ng·h/mL"}, {"measurement": "Median ASP9853 Cmax", "setting": "[2]", "result": 1019, "unit": "ng/mL"}, {"measurement": "Median AUC24 for ASP9853", "setting": "[2]", "result": 8839, "unit": "ng·h/mL"}, {"measurement": "Median ASP9853 Cmax", "setting": "[3]", "result": 2450, "unit": "ng/mL"}, {"measurement": "Median AUC24 for ASP9853", "setting": "[3]", "result": 7075, "unit": "ng·h/mL"}, {"measurement": "Median ASP9853 Cmax", "setting": "[4]", "result": 1490, "unit": "ng/mL"}, {"measurement": "Median AUC24 for ASP9853", "setting": "[4]", "result": 6922, "unit": "ng·h/mL"}, {"measurement": "ASP9853 cleared from plasma within 24 hours after administration", "setting": "in vivo", "result": "more than 95%"}, {"measurement": "Tmax of ASP9853", "setting": "oral, patients with advanced solid tumors", "result": "30 to 252", "unit": "min"}, {"measurement": "ASP9853 plasma exposure (AUC24) when administered in combination with docetaxel", "setting": "sample size too small for statistical significance, data not shown", "result": "appeared lower"}]}
